This passage reports IC50 results from US20060079453A1, “Hla binding peptides and their uses” (priority 2002, published 2006).

Like-named read-outs stand apart in the source and are kept apart here. No end group written: not given here.

Targets include HLA-DR DRB4*0101 (DR53) (Homo sapiens, UniProt P01903+P13762, G164S); HLA-DR DRB5*0101 (DR51) (Homo sapiens, UniProt P01903+Q30154); HLA-DR DRB1*0101 (DR1) (Homo sapiens, UniProt P01903+P01911, A100R/D57E/F55L/F60I/F76Y/I96L/L162R/M171V/P40L/Q125E/R42F/V115G/Y59C); HLA-DR DRB1*0401 (DR4) (Homo sapiens, UniProt P01903+P01911, A100K/A169T/F76Y/I96L/K127E/L162R/M171V/N62H/P40V/Q125Y/R42H/S133A/S149N/S66Y/V115G/V209L/W38E); HLA-DR DRB1*0701 (DR7) (Homo sapiens, UniProt P01903+P01911, A100R/A102G/A103Q/D57E/D86V/E43K/F76Y/K127E/L162R/M171V/P40G/Q125H/Q99D/R33Q/R42Y/R54Q/S133A/S66F/T210M/V115G/Y107V/Y59L/Y89S); HLA-DR DRB1*1501 (DR15) (Homo sapiens, UniProt P01903+P01911).

What all share (assay): biochemical
Holding throughout (type): binding

Another test deals with HLA-DR DRB1*1302 (DR13) (Homo sapiens, UniProt P01903+P01911, A100E/A169T/K41T/L162R/M171V/P40S/Q125H/Q178H/Q39Y/Q99D/R42S/S66N/T262R/V115G/W38E/Y61H). Particulars: read-out: DRBI *1302.
Sequence of HLA-DR DRB1*1302 (DR13) (P01903 26-254 limits assumed, other chains not shown): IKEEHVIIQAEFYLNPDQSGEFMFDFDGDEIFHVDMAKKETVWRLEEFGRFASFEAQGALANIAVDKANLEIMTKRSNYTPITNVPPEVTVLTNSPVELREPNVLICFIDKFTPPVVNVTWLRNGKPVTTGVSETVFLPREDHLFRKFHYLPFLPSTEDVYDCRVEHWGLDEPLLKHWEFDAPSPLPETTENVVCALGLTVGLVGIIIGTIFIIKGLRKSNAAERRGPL

VGIRTPVLTSLFNKV: the IC50 at HLA-DR DRB4*0101 (DR53) (read-out: DRB4 *0101) was 97 nM; on HLA-DR DRB5*0101 (DR51) (read-out: DRB5 *0101), 80 nM. Consider AAKGIKIGFGIFA, for which the IC50 is no less than 50000 nM against HLA-DR DRB1*0101 (DR1) (DRB1 *0101) and 471 nM at HLA-DR DRB1*0401 (DR4) (DRB1 *0401). `CC[C@H](C)[C@H](NC(=O)[C@@H](NC(=O)[C@@H]1CCCN1C(=O)[C@H](Cc1ccccc1)NC(=O)[C@H](Cc1ccccc1)NC(=O)[C@H](Cc1ccc(O)cc1)NC(=O)[C@H](CCC(N)=O)NC(=O)[C@H](Cc1c[nH]c2ccccc12)NC(=O)[C@H](CC(N)=O)NC(=O)CNC(=O)[C@@H](N)C(C)C)C(C)C)C(=O)N[C@@H](Cc1ccccc1)C(=O)N[C@@H](CO)C(=O)N[C@@H](CCCCN)C(=O)N[C@@H](C)C(=O)O`: the IC50 was determined as 37 nM against HLA-DR DRB1*0101 (DR1) (DRB1 *0101), 4.1 nM on HLA-DR DRB1*0401 (DR4) (DRB1 *0401) and 100 nM on HLA-DR DRB1*0701 (DR7) (DRB1 *0701). With `C[C@H](N)C(=O)N[C@@H](C)C(=O)N[C@@H](C)C(=O)N[C@@H](C)C(=O)N[C@@H](C)C(=O)N[C@@H](C)C(=O)N[C@@H](C)C(=O)N[C@@H](C)C(=O)N[C@@H](C)C(=O)N[C@@H](C)C(=O)N[C@@H](C)C(=O)N[C@@H](C)C(=O)N[C@@H](CC(N)=O)C(=O)O`, the IC50 at HLA-DR DRB1*0101 (DR1) (DRB1 *0101) is no less than 50000 nM; on HLA-DR DRB1*0401 (DR4) (DRB1 *0401), 500 nM. In the same order, the values of AAAAASAAAAAAA are no less than 50000 nM and 235 nM.

For (43)AADFGIFIDFHA, the IC50 on HLA-DR DRB1*0401 (DR4) (read-out: DRB1 *0401) was determined as 235 nM. In the case of ACAAAKATAAAA(10)AA, the IC50 on HLA-DR DRB1*0101 (DR1) (read-out: DRB1 *0101) came to 5000 nM. Turning to ENPVVHFFKIHVTPA, the IC50 on HLA-DR DRB1*1501 (DR15) (read-out: DRBI *1501) came out at 2.5 nM. As for YAR(15A)RQTTLKA, the IC50 is 1.6 nM at HLA-DR DRB1*0101 (DR1) (read-out: DRB1 *0101), 0.35 nM on HLA-DR DRB1*0401 (DR4) (read-out: DRB1 *0401) and 8330 nM at HLA-DR DRB1*0701 (DR7) (read-out: DRB1 *0701). With QFLGQQQPFPPQ, the IC50 against HLA-DR DRB4*0101 (DR53) (DRB4 *0101) came out at 2.8 nM. On HLA-DR DRB1*0101 (DR1), AAANAAAAAAAAA had an IC50 of no less than 50000 nM. Turning to QKQLLTNHLINTPKI, the IC50 on HLA-DR DRB4*0101 (DR53) (read-out: DRB4 *0101) came to 904 nM. Take QFLGQQQPF: at HLA-DR DRB4*0101 (DR53) (DRB4 *0101), the IC50 is 5.3 nM. On HLA-DR DRB1*0101 (DR1) (DRB1 *0101), AAEAAAATAKAAA showed an IC50 of 2500 nM. Consider PKYFKQGFLKGAT, for which the IC50 against HLA-DR DRB1*0101 (DR1) is no less than 50000 nM; at HLA-DR DRB1*0401 (DR4), 800 nM. Turning to P(X)KQNTLKLAT, the IC50 at HLA-DR DRB1*0101 (DR1) (read-out: DRB1 *0101) worked out at 1.7 nM. Take `C[C@H](N)C(=O)N[C@@H](C)C(=O)N[C@@H](C)C(=O)N[C@@H](C)C(=O)N[C@@H](C)C(=O)N[C@@H](C)C(=O)N[C@@H](C)C(=O)N[C@@H](C)C(=O)N[C@@H](C)C(=O)N[C@@H](C)C(=O)N[C@@H](C)C(=O)N[C@@H](CC(N)=O)C(=O)N[C@@H](C)C(=O)O`: the IC50 against HLA-DR DRB1*0101 (DR1) (DRB1 *0101) was no less than 50000 nM; against HLA-DR DRB1*0401 (DR4) (DRB1 *0401) it was 1000 nM. As for AAKAAAAAAA(10)AA, the IC50 on HLA-DR DRB1*0401 (DR4) (read-out: DRB1 *0401) was greater than 889 nM. On to (52)AAAATKAAAA, for which the IC50 with HLA-DR DRB1*0101 (DR1) (read-out: DRB1 *0101) worked out at 2000 nM. Turning to PQPFRPQQPYP, the IC50 against HLA-DR DRB4*0101 (DR53) (DRB4 *0101) was 14 nM. PKYGKQIDLKGAT showed an IC50 on HLA-DR DRB1*0101 (DR1) (DRB1 *0101) of no less than 50000 nM. Consider IRNLALQTLPAM, for which the IC50 at HLA-DR DRB4*0101 (DR53) (DRB4 *0101) turned out to be 2 nM.

Turning to RNGYRALMDKSLHVGTQCALTRR, the IC50 against HLA-DR DRB1*0401 (DR4) (DRB1 *0401) was determined as 512 nM. In turn, PQPFRPQQPYPQ had an IC50 against HLA-DR DRB4*0101 (DR53) (DRB4 *0101) of 15 nM.

The molecule YSFFPSI [YSFFPSI] registered an IC50 at HLA-DR DRB1*0101 (DR1) (DRB1 *0101) of no less than 50000 nM. With `C[C@H](N)C(=O)N[C@@H](CO)C(=O)N[C@@H](C)C(=O)N[C@@H](C)C(=O)N[C@@H](C)C(=O)N[C@@H](C)C(=O)N[C@@H](C)C(=O)N[C@@H](C)C(=O)N[C@@H](C)C(=O)N[C@@H](C)C(=O)N[C@@H](C)C(=O)N[C@@H](C)C(=O)N[C@@H](C)C(=O)O`, the IC50 against HLA-DR DRB1*0101 (DR1) (DRB1 *0101) is no less than 50000 nM. In the case of PQPFKPQQPYPQ, the IC50 at HLA-DR DRB4*0101 (DR53) (DRB4 *0101) is 19 nM. Same read-out and setting: the result for PQPFRPQQPYPK reads 22 nM; that for PQPFRPQQP, 19 nM. For the molecule FSYFPSI [FSYFPSI], on HLA-DR DRB1*0101 (DR1) (DRB1 *0101), the IC50 is no less than 50000 nM.

At HLA-DR DRB1*0401 (DR4) (DRB1 *0401), QNILFSNAPLGPQFP showed an IC50 of 195 nM. On HLA-DR DRB1*0101 (DR1) (DRB1 *0101), AAAKAAAAAAAFA had an IC50 of no less than 50000 nM. `CC(C)C[C@H](NC(=O)[C@H](CCCCN)NC(=O)[C@H](C)NC(=O)[C@@H](NC(=O)[C@H](CCCCN)NC(=O)[C@H](CCCNC(=N)N)NC(=O)[C@H](CO)NC(=O)[C@H](CC(C)C)NC(=O)[C@H](C)NC(=O)[C@H](C)NC(=O)[C@H](CCC(N)=O)NC(=O)[C@H](Cc1ccccc1)NC(=O)[C@H](CCC(=O)O)NC(=O)[C@H](CO)NC(=O)[C@@H](N)CCC(=O)O)C(C)C)C(=O)O` registered an IC50 on HLA-DR DRB1*0401 (DR4) (DRB1 *0401) of 579 nM.

IRNLALQTLPAMCNVY yielded an IC50 against HLA-DR DRB4*0101 (DR53) (DRB4 *0101) of 1.9 nM. Turning to (43)AAIGGIFIFKKDA, the IC50 at HLA-DR DRB1*0401 (DR4) (read-out: DRB1 *0401) is 800 nM. With AAAKAAAAFAAAA, the IC50 against HLA-DR DRB1*0101 (DR1) (DRB1 *0101) was no less than 50000 nM.

Regarding AFLRAAAAAAFAA, the IC50 on HLA-DR DRB1*0101 (DR1) (DRB1 *0101) was no less than 50000 nM; at HLA-DR DRB1*0401 (DR4) (DRB1 *0401) it was 400 nM.

Take YARFLALTTLRARA: the IC50 on HLA-DR DRB1*0101 (DR1) (read-out: DRB1 *0101) turned out to be 0.98 nM; at HLA-DR DRB1*0401 (DR4) (read-out: DRB1 *0401), 0.28 nM. Regarding ESTGMTPEKVPVSEVM, the IC50 on HLA-DR DRB1*1302 (DR13) is greater than 17500 nM; at HLA-DR DRB4*0101 (DR53) (read-out: DRB4 *0101) it was greater than 64400 nM.

As for AFLRQAAAAAFAAY, the IC50 against HLA-DR DRB1*0101 (DR1) (DRB1 *0101) came to 2500 nM; against HLA-DR DRB1*0401 (DR4) (DRB1 *0401) it was 1000 nM. Take LEDLLMGTLGIVCPI: the IC50 is 1690 nM on HLA-DR DRB1*1302 (DR13), 1800 nM at HLA-DR DRB4*0101 (DR53) (read-out: DRB4 *0101) and 9480 nM at HLA-DR DRB5*0101 (DR51) (read-out: DRB5 *0101). Take ENPVVHAFKNIVTPR: the IC50 against HLA-DR DRB1*1501 (DR15) (DRBI *1501) worked out at 4.1 nM; against HLA-DR DRB5*0101 (DR51) (DRB5 *0101) it was 910 nM.
